What was measured:
[1] = test system: MOLM-13 (carrying MLL-AF9); assay: Inhibition of proliferation of human tumor cells (Alamar Blue, 7 days), MOLM-13; format: cell-based; conditions: Homo sapiens, MOLM-13 cells (carrying MLL-AF9), method calls the value GI50
Outline: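 Suspension cells were plated, dosed the same day with a graded compound series, and incubated seven days at 37°C under 5% CO2. Growth was then measured by Alamar Blue fluorescence, and the concentration halving proliferation (GI50) was calculated relative to Day 0 and Day 7 vehicle controls.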

MEIS1 gene expression = assay: Inhibition of MEIS1 gene expression in human tumor cells (qRT-PCR), MV-4-11; format: cell-based; conditions: MV4-11, MV-4-11 (carrying MLL-AF4), 48 hours of incubation, relative MEIS1 gene expression vs GAPDH, read-out: MV-4-11 MEISI EC50
Source text: Experimental Example 3: Evaluation of Inhibitory Activity of Compounds Against MEISI Gene Expression in Human Tumor Cells
The effect of test samples on MEIS1 gene expression in vitro cultured human leukemia cells MV-4-11 (carrying MLL-AF4), MOLM-13 (carrying MLL-AF9), and OCI-AML3 (carrying NPM1c) was studied.
• Human acute lymphoblastic leukemia cells MV-4-11, purchased from American Type Culture Collection, Catalog Number: CRL-9591; • Human acute myeloid leukemia cells MOLM-13, purchased from COBIOER BIOSCIENCES CO., LTD, Catalog Number: CBP60678; • Human acute myeloid leukemia cells OCI-AML3, purchased from COBIOER BIOSCIENCES CO., LTD, Catalog Number: CBP60817; • MEIS1 Primer/Probe, purchased from IDT, Catalog Number: 40831613; and • GAPDH Primer/Probe, purchased from IDT, Catalog Number: 22214836.
MV-4-11 cells were cultured in an IMDM medium containing 10% fetal bovine serum, or MOLM-13 and OCI-AML3 cells were cultured in an RPMI-1640 medium containing 20% fetal bovine serum, each supplemented with 100 U·mL^-1 penicillin and 100 µg·mL^-1 streptomycin. These cells were cultured at 37°C with 5% CO2. The suspensions of individual cell lines were prepared in their respective media and seeded into 48-well plates at a density of 100,000 cells/well. On the day of the experiment, a compound stock solution was diluted in a 6-fold gradient using DMSO. Each gradient-diluted stock solution was then further diluted 250-fold with a complete medium to prepare a series of working solutions at different concentrations. Next, 250 µL of working solution (containing the complete medium with a 2-fold serial concentration of the test compound or a positive control compound, or containing a control complete medium) was added to each well. After 48 hours of incubation, cells from the 48-well plate were collected into 1 mL centrifuge tubes, centrifuged at 1000 rpm for 5 minutes, and the complete medium was removed. Cells were washed twice with 1 mL PBS and centrifuged to remove PBS. Total RNA was extracted using the RNeasy Mini Kit (250) (QIAGEN, 74106). The threshold cycle (Ct) value for gene expression was determined using the HiScript II U+ One Step qRT-PCR Probe Kit (Vazyme) (Vazyme, Q223-01), with 3 replicates per sample. The prepared reaction mixture was placed in an ABI 7500 real-time PCR instrument, and the reaction proceeded following the procedures below. [formula]
Next, for the relative MEIS1 gene expression, the concentration (EC50) that inhibits 50% of relative MEIS1 gene expression was calculated using GraphPad Prism 8 software.

CCN(C(=O)c1cc(F)ccc1-c1cc(C2CN([C@H](CCCN3CCN(C)CC3)C(C)C)C2)cn2c(C)ncc12)C(C)C [Example 310-2, N-ethyl-5-fluoro-2-(3-methyl-6-{1-[(3R)-2-methyl-6-(4-methylpiperazin-1-yl)hexan-3-yl]azacyclobutan-3-yl}imidazo[1,5-a]pyridin-8-yl)-N-(isopropyl)benzamide] showed an IC50 ([1]; 168 h) of 6.2 nM and an EC50 (MEIS1 gene expression) of 5 nM.
With CCN(C(=O)c1cc(F)ccc1-c1cc(C2(F)CN(C(=O)C3NC4CCC3CC4)C2)cn2c(C)ncc12)C(C)C [Example 75, N-ethyl-5-fluoro-2-(6-{3-fluoro-1-[(1R,3S,4S)-2-azabicyclo[2.2.2]octan-3-carbonyl]azacyclobutan-3-yl}-3-methylimidazo[1,5-a]pyridin-8-yl)-N-(isopropyl) benzamide] the IC50 ([1]; MOLM-13, 168 h) was 78 nM and the EC50 (MEIS1 gene expression) was 82 nM.
Compound CCN(C(=O)c1cc(F)ccc1-c1cc(C2CN([C@@H](C)C3CCN(C(=O)CO)CC3)C2)cn2c(C)nc(F)c12)C(C)C [Example 284-2] has an IC50 ([1]; 168 h) of 6.8 nM.
Compound CNC(=O)N1CCC([C@H](C)N2CC(c3cc(-c4ccc(F)cc4C(=O)N4CCOC[C@H]4C)c4c(F)nc(C)n4c3)C2)CC1 [Example 264-2] has an IC50 ([1]; 168 h) of 12 nM and an EC50 (MEIS1 gene expression) of 18 nM.
CCN(C(=O)c1cc(F)ccc1-c1cc(C2CN([C@H](CCCN3C4COCC3C4)C(C)C)C2)cn2c(C)ncc12)C(C)C [Example 423] was tested, and the IC50 ([1]; 168 h) was 2.7 nM and the EC50 (MEIS1 gene expression) was 1.3 nM.
In the case of Cc1nc(F)c2c(-c3ccc(F)cc3C(=O)N3CCOC[C@H]3C)cc(C3CN(C(CC[C@@H]4COCCN4)C(C)C)C3)cn12 (stereo partly drawn) [Example 371, (3R)-4-{5-fluoro-2-[1-fluoro-3-methyl-6-(1-{4-methyl-1-[(3R)-morpholin-3-yl]pentan-3-yl}azacyclobutan-3-yl)imidazo[1,5-a]pyridin-8-yl]benzoyl}-3-methylmorpholine], the IC50 ([1]; 168 h) is reported as 5.3 nM and the EC50 (MEIS1 gene expression) is reported as 3 nM.
Compound CCN(C(=O)c1cc(F)ccc1-c1cc(C2CCN(Cc3ccc(-c4cc(OC)c(OC)nn4)cc3)C2)cn2c(C)ncc12)C(C)C (stereo not drawn) [Example 83] has an IC50 ([1]; 168 h) of 33 nM and an EC50 (MEIS1 gene expression) of 24 nM.
In the case of COCCN(C)CCCC(C(C)C)N1CC(c2cc(-c3ccc(F)cc3C(=O)N3CCOCC3C)c3cnn(C)c3c2)C1 (stereo not drawn) [Example 185], the IC50 ([1]; 168 h) is reported as 70 nM and the EC50 (MEIS1 gene expression) is reported as 55 nM.
Cc1nc(F)c2c(-c3ccc(F)cc3C(=O)N3CCOC[C@H]3C)cc(C3CN([C@H](CN4CCN(C)CC4)C(C)C)C3)cn12 [Example 368-2, (3R)-4-[5-fluoro-2-(1-fluoro-3-methyl-6-{1-[(2S)-3-methyl-1-(4-methylpiperazin-1-yl)butan-2-yl]azacyclobutan-3-yl}imidazo[1,5-a]pyridin-8-yl)benzoyl]-3-methylmorpholine] showed an IC50 ([1]; 168 h) of 8.6 nM and an EC50 (MEIS1 gene expression) of 7.8 nM.
COCCN(C)CCC[C@H](C(C)C)N1CC(c2cc(-c3ccc(F)cc3C(=O)N3[C@H](C)COC[C@H]3C)c3cnn(C)c3c2)C1 [Example 186-2, [(4R)-4-[3-(4-{2-[(3R,5R)-3,5-dimethylmorpholin-4-carbonyl]-4-fluorophenyl}-1-methyl-1H-indazol-6-yl)azacyclobutan-1-yl]-5-methylhexyl](2-methoxyethyl)methylamine] showed an IC50 ([1]; 168 h) of 28 nM and an EC50 (MEIS1 gene expression) of 3.8 nM.
In the case of CC(=O)N1CCN(CCC[C@H](C(C)C)N2CC(c3cc(-c4ccc(F)cc4C(=O)N4CCOC[C@H]4C)c4c(F)nc(C)n4c3)C2)CC1 [Example 265], the IC50 ([1]; 168 h) is reported as 25 nM and the EC50 (MEIS1 gene expression) is reported as 54 nM.
Work on CCN(C(=O)c1cc(F)ccc1-c1cc(C2CN([C@H](CCCN3CCN(C(C)=O)CC3)C(C)C)C2)cn2c(C)ncc12)C(C)C [Example 311-2, 2-(6-{1-[(3R)-6-(4-acetylpiperazin-1-yl)-2-methylhexan-3-yl]azacyclobutan-3-yl}-3-methylimidazo[1,5-a]pyridin-8-yl)-N-ethyl-5-fluoro-N-(isopropyl)benzamide] yielded an IC50 ([1]; 168 h) of 26 nM and an EC50 (MEIS1 gene expression) of 19 nM.
For Cc1nc(F)c2c(-c3ccc(F)cc3C(=O)N3CCOC[C@H]3C)cc(C3CN([C@H](CO[C@@H]4CCCN(C)C4)C(C)C)C3)cn12 [Example 297-1, (3R)-4-[5-fluoro-2-(1-fluoro-3-methyl-6-{1-[(2S)-3-methyl-1-{[(3R)-1-methylpiperidin-3-yl]oxy}butan-2-yl]azacyclobutan-3-yl}imidazo[1,5-a]pyridin-8yl)benzoyl]-3-methylmorpholine], the IC50 ([1]; 168 h) was 36 nM and the EC50 (MEIS1 gene expression) was 32 nM.
Compound Cc1ncc2c(-c3ccc(F)cc3C(=O)N3CCOC[C@H]3C)cc(C3CN([C@H](CCCN4CCN(C)CC4)C(C)C)C3)cn12 [Example 323-2, (3R)-4-[5-fluoro-2-(3-methyl-6-{1-[(3R)-2-methyl-6-(4-methylpiperazin-1-yl)hexan-3-yl]azacyclobutan-3-yl}imidazo[1,5-a]pyridin-8-yl)benzoyl]-3-methylmorpholine] has an IC50 ([1]; 168 h) of 15 nM and an EC50 (MEIS1 gene expression) of 8.6 nM.
CCS(=O)(=O)N[C@H]1CC[C@H](CN2CC(c3cc(-c4ccc(F)cc4C(=O)N(CC(F)F)C(C)C)c4cnc(C)n4c3)C2)CC1 [Example 138] showed an IC50 ([1]; 168 h) of 7.6 nM and an EC50 (MEIS1 gene expression) of 15 nM.
CCN(C(=O)c1cc(F)ccc1-c1cc(C2CN(C[C@H]3CC[C@H](NS(=O)(=O)CC)CC3)C2)cn2c(C)nc(F)c12)C(C)C [Example 137] was tested, and the IC50 ([1]; 168 h) was 10 nM and the EC50 (MEIS1 gene expression) was 16 nM.
With Cc1nc(F)c2c(-c3ccc(F)cc3C(=O)N3CCOC[C@H]3C)cc(C3CN([C@H](CCCN4CCN(C5CC5)CC4)C(C)C)C3)cn12 [Example 350] the IC50 ([1]; 168 h) was 4.6 nM and the EC50 (MEIS1 gene expression) was 6.8 nM.
For CO[C@H]1CCCN(CCC[C@H](C(C)C)N2CC(c3cc(-c4ccc(F)cc4C(=O)N4CCOC[C@H]4C)c4c(F)nc(C)n4c3)C2)C1 [Example 306], the IC50 ([1]; 168 h) was 7.7 nM and the EC50 (MEIS1 gene expression) was 4.6 nM.
COCCN(C)CCCC(C(C)C)N1CC(c2cc(-c3ccc(F)cc3C(=O)N(CC(F)F)C(C)C)c3c(F)nc(C)n3c2)C1 (stereo not drawn) [Example 142, N-(2,2-difluoroethyl)-5-fluoro-2-[1-fluoro-6-(1-{6-[(2-methoxyethyl)(methyl)amino]-2-methylhexan-3-yl}azacyclobutan-3-yl)-3-methylimidazo[1,5-a]pyridin-8-yl]-N-(isopropyl)benzamide] gave an IC50 ([1]; 168 h) of 10 nM and an EC50 (MEIS1 gene expression) of 6 nM.
CCN(C(=O)c1cc(F)ccc1-c1cc(C2CN([C@H](CCCN3CCN(C)CC3)C(C)C)C2)cn2c(C)nc(F)c12)C(C)C [Example 312-2] was tested, and the IC50 ([1]; 168 h) was 5.3 nM and the EC50 (MEIS1 gene expression) was 5.7 nM.
CC(=O)N1CCC(CN2CC(c3cc(-c4ccc(F)cc4C(=O)N4[C@H](C)COC[C@H]4C)c4c(F)nc(C)n4c3)C2)CC1 [Example 205] showed an IC50 ([1]; 168 h) of 19 nM and an EC50 (MEIS1 gene expression) of 18 nM.
Compound Cc1nc(F)c2c(-c3ccc(F)cc3C(=O)N3CCOC[C@H]3C)cc(C3CN([C@H](CCCN4CCC(F)CC4)C(C)C)C3)cn12 [Example 314] has an IC50 ([1]; 168 h) of 7.3 nM and an EC50 (MEIS1 gene expression) of 13 nM.
Compound CO[C@@H]1CCN(CCC[C@H](C(C)C)N2CC(c3cc(-c4ccc(F)cc4C(=O)N4CCOC[C@H]4C)c4c(F)nc(C)n4c3)C2)C1 [Example 202] has an IC50 ([1]; 168 h) of 11 nM and an EC50 (MEIS1 gene expression) of 3.5 nM.
COCCN(C)CCC[C@H](C(C)C)N1CC(c2cc(-c3ccc(F)cc3C(=O)N3CCOC[C@H]3C)c3c(F)nc(C)n3c2)C1 [Example 200-1] gave an IC50 ([1]; 168 h) of 10.2 nM and an EC50 (MEIS1 gene expression) of 12 nM.
With Cc1nc(F)c2c(-c3ccc(F)cc3C(=O)N3CCOC[C@H]3C)cc(C3CN([C@H](CO[C@H]4CCCN(C)C4)C(C)C)C3)cn12 [Example 321-2, (3R)-4-[5-fluoro-2-(1-fluoro-3-methyl-6-{1-[(2S)-3-methyl-1-{[(3S)-1-methylpiperidin-3-yl]oxy}butan-2-yl]azacyclobutan-3-yl}imidazo[1,5-a]pyridin-8yl)benzoyl]-3-methylmorpholine] the IC50 ([1]; 168 h) was 17 nM.
